Laboratory results reported in patent publication US6979740B2, “Process for preparation of ring-substituted 8-aminoquinoline analogs as antimalarial agents” (National Institute of Pharmaceutical Education and Research, priority 2003, dated 2005).
Values after ≈ are worked out from the molar mass of the structure shown. “Also recorded” adds a separate entry of the source.

What was measured:
[1] = system: Plasmodium berghei (sensitive strain); test: Blood schizontocidal activity against Plasmodium berghei infection in mice; format: in vivo; conditions: P. berghei infected mice, oral, 4 doses D0 to D+3, suppressive = parasitaemia suppressed on D+4 and D+7, curative = cleared up to 28 days
Method: (§1) Blood schizontocidal activity evaluation of potential antimalarial compounds against Plasmodium berghei (sensitive strain) and P. yoelii nigeriensis (resistant strain) infection in mice.
(§2) Test Procedure: On day ‘0’, groups of 6 mice each were inoculated, intraperitoneally, with 1×10^7 infected-erythrocytes, from a donor mouse. Four hours later, mice were administered test compounds/chloroquine primaquine/vehicle, orally. A total of 4 doses were given on days D‘0’, D+1, D+2, and D+3. The tail blood smears were made on day D+4 and D+7, stained with Geimsa, and examined microscopically. […] The results of blood-schizontocidal activities for the synthesized compounds are given below in Table 1.

Swiss mice = test: Acute toxicity studies in Swiss mice; format: in vivo
Method: A group of ten mice with equal ratio of male and female were subjected to a single dose of 5, 50, 150 and 450 mg/kg.

P. falciparum = test: In vitro antimalarial activity against P. falciparum; format: cell-based
Method: Protocol: Different drug dilutions [test compounds and chloroquine (positive control)] were prepared in complete RPMI (medium RPMI 1640+10% AB^+ human serum; CRPMI). Fifty μL of each dilution was transferred to the respective well of a microtiter plate in triplicates. Parasitized erythrocytes (PE; mainly rings; 4% parasitaemia; 5% hematokrit) were added to each well. Volume in each well was made up to 200 μL with CRPMI. The plates were incubated at 37° C. in a candle jar. After 24-48 h of incubation, thin smears from each well were made and stained with Giemsa. The number of PE/10,000 cells was counted. […] Using non-linear regression analysis, the IC50 of the test compounds was then calculated.

Mastomys coucha = test: In vivo methemoglobin (MetHb) toxicity in Mastomys coucha; conditions: for (%) Methemoglobin (MetHb) Increase: Mastomys coucha, blood 4 h after administration
Method: The protocol used is as follows: In vivo MetHb-inducing properties estimation was carried out in Mastomys coucha, a rapid rodent animal model using protocols reported earlier (Srivastava, P., Singh, S., Jain, G. K., Puri, S. K., Pandey, V. C. Ecotox. Environ. Safety. 2000, 45, 236-239). Briefly; six animals per group of both sexes, 2-3 months old and body weight between 40-50 g were used for the present investigation. Drug was administered intraperitoneally (ip) or orally at various dosage for single day/three consecutive days. Primaquine is used as the standard drug for the test. It is known that primaquine is readily absorbed from the gastro-intestinal tract and peak plasma concentration reaches within 3 h and falls within an apparent elimination half time of 6 h. Keeping the above pharmacokinetic profile in mind, the blood samples were collected after 4 h of drug administration and % increase in MetHb was calculated.

[2] = system: P. yoelii nigeriensis (multidrug resistant strain); test: Blood schizontocidal activity against chloroquine and mefloquine drug-resistant P. yoelii nigeriensis in mice; format: in vivo; conditions: oral, 4 doses, listed as R=H, R1=H, R2=C(CH3)3, R3=H
Method: as §1, §2

[3] = cited from earlier work

COc1cc(NC(C)CCCN)c2nc(C34CC5CC(CC(C5)C3)C4)ccc2c1 (stereo not shown) [Example 45, N^8-[4-Amino-1-methylbutyl)-2-adamantyl-6-methoxy-8-quinolinamine]
Biological activity at (mg/kg/days × 4) [1]: Inactive at 100 mg/kg

COc1cc(NC(C)CCCN)c2nc(C3CCCC3)ccc2c1C1CCCC1 (stereo not shown) [Example 48, N^8-(4-Amino-1-methylbutyl)-2,5-dicyclopentyl-6-methoxy-8-quinolinamine]
Biological activity at (mg/kg/days × 4) [1]: Inactive at 100 mg/kg

COc1cc(NC(C)CCCN)c2ncccc2c1C1CCCC1 (stereo not shown) [Example 44, N^8-(4-Amino-1-methylbutyl)-5-cyclopentyl-6-methoxy-8-quinolinamine]
Biological activity at (mg/kg/days × 4) [1]: Inactive at 100 mg/kg

COc1cc(NC(C)CCCN)c2ncccc2c1C(C)C (stereo not shown) [Example 46, N^8-(4-Amino-1-methylbutyl)-5-isopropyl-6-methoxy-8-quinolinamine]
Biological activity at (mg/kg/days × 4) [1]: Inactive at 100 mg/kg

CCCCCOc1c(OC)cc(NC(C)CCCN)c2nc(C(C)(C)C)cc(CC)c12 (stereo not shown) [Example 54, N^8-(4-Amino-1-methylbutyl)-2-tert-butyl-4-ethyl-6-methoxy-5-pentoxy-8-quinolin-amine]
Biological activity at (mg/kg/days × 4) [1]: Curative at 100 mg/kg

COc1cc(NCCC(C)CN)c2nc(C(C)(C)C)cc(C)c2c1OC (stereo not shown) [Example 56, N^8-(4-Amino-3-methylbutyl)-2-tert-butyl-5,6-methoxy-4-methyl-8-quinolinamine]
Biological activity at (mg/kg/days × 4) [1]: Curative at 100 mg/kg

COc1cc(NC(C)CCCN)c2nc(C(C)(C)C)ccc2c1OC (stereo not shown) [Example 51, N^8-(4-Amino-1-methylbutyl)-2-tert-butyl-5,6-dimethoxy-8-quinolinamine]
Biological activity at (mg/kg/days × 4) [1]: Inactive at 100 mg/kg

COc1cc(NC(C)CCCNC(=O)[C@H](C)N)c2nc(C(C)(C)C)ccc2c1 (stereo partly drawn) [Example 64, N^1-[4-(2-tert-Butyl-6-methoxy-8-quinolylamino)pentyl]-(2S)-2-aminopropanamide]
Biological activity at (mg/kg/days × 4) ([1]; listed as 18): suppressive activity at 10 mg/kg
Biological activity at (mg/kg/days × 4) ([1]; listed as R=H, R1=H, R2=C(CH3)3, R3=S-(Ala)): Suppressive at 10 mg/kg

COc1cc(NC(C)CCCNC(=O)[C@@H](N)CCCN)c2nc(C(C)(C)C)ccc2c1 (stereo partly drawn) [Example 61, N^1-[4-(2-tert-Butyl-6-methoxy-8-quinolylamino)pentyl]-(2S)-2,5-diaminopentamide]
Biological activity at (mg/kg/days × 4) [1]: Curative at 100 mg/kg

COc1cc(NC(C)CCCN)c2nc(C(C)(C)C)ccc2c1 (stereo not shown) [Example 43, N^8-(4-Amino-1-methylbutyl)-2-tert-butyl-6-methoxy-8-quinolinamine]
acute toxicity (result in words) (Swiss mice; single dose): completely safe at 50 mg/kg
% Mortality Female (Swiss mice; single dose 5 mg/kg): 0%
% Mortality Male (Swiss mice; single dose 5 mg/kg): 0%
% Mortality Total (Swiss mice; single dose 5 mg/kg): 0%
% Mortality Female (Swiss mice; single dose 50 mg/kg): 0%
% Mortality Male (Swiss mice; single dose 50 mg/kg): 0%
% Mortality Total (Swiss mice; single dose 50 mg/kg): 0%
% Mortality Female (Swiss mice; single dose 150 mg/kg): 0%
% Mortality Male (Swiss mice; single dose 150 mg/kg): 0%
% Mortality Total (Swiss mice; single dose 150 mg/kg): 0%
% Mortality Female (Swiss mice; single dose 450 mg/kg): 0%
% Mortality Male (Swiss mice; single dose 450 mg/kg): 0%
% Mortality Total (Swiss mice; single dose 450 mg/kg): 0%
IC50 (P. falciparum; Plasmodium falciparum, Erythrocyte, read-out: P. falciparum (IC50)): 0.0391 µg/mL (≈ 0.124 µM)
(%) Methemoglobin (MetHb) Increase (Mastomys coucha; 15 mg/kg/day x 4 days (ip)): 0%
(%) Methemoglobin (MetHb) Increase (Mastomys coucha; 15 mg/kg/day x 4 days (oral)): 0%
(%) Methemoglobin (MetHb) Increase (Mastomys coucha; 50 mg/kg (single dose) (ip)): 0%
(%) Methemoglobin (MetHb) Increase (Mastomys coucha; 50 mg/kg (single dose) (oral)): 0%
methemoglobin (MetHb) toxicity (result in words) (Mastomys coucha; in vivo): completely devoid of this toxic manifestation in vivo
Biological activity at (mg/kg/days × 4) ([1]; listed as 1): curative at a dose of 10 mg/kg
Biological activity at (mg/kg/days × 4) ([1]; listed as R=H, R1=H, R2=C(CH3)3, R3=H): Curative at 10 mg/kg
Biological activity at (mg/kg/days × 4) [2]: Curative at 100 mg/kg; also recorded: Curative at 50 mg/kg; also recorded: Curative at 25 mg/kg; also recorded: Suppressive at 10 mg/kg

COc1cc(NC(C)CCCNC(=O)[C@@H](N)CCCCN)c2nc(C(C)(C)C)ccc2c1 (stereo partly drawn) [Example 63, N^1-[4-(2-tert-Butyl-6-methoxy-8-quinolylamino)pentyl]-(2S)-2-6-diaminohexanamide]
Biological activity at (mg/kg/days × 4) ([1]; listed as 17): suppressive activity at 10 mg/kg
Biological activity at (mg/kg/days × 4) ([1]; listed as R=H, R1=H, R2=C(CH3)3, R3=S-(Lys)): Suppressive at 10 mg/kg

COc1cc(NC(C)CCCN)c2ncccc2c1C1CCCCC1 (stereo not shown) [Example 47, N^8-(4-Amino-1-methylbutyl)-5-cyclohexyl-6-methoxy-8-quinolinamine]
Biological activity at (mg/kg/days × 4) [1]: Inactive at 100 mg/kg

COc1cc(NC(C)CCCN)c2nc(C3CCCCC3)ccc2c1C1CCCCC1 (stereo not shown) [Example 50, N^8-(4-Amino-1-methylbutyl)-2,5-dicyclohexyl-6-methoxy-8-quinolinamine]
Biological activity at (mg/kg/days × 4) [1]: Inactive at 100 mg/kg

COc1cc(NC(C)CCCN)c2nc(C(C)C)ccc2c1C(C)C (stereo not shown) [Example 49, N^8-(4-Amino-1-methylbutyl)-2,5-diisopropyl-6-methoxy-8-quinolinamine]
Biological activity at (mg/kg/days × 4) [1]: Inactive at 100 mg/kg

COc1cc(NC(C)CCCN)c2ncccc2c1 (stereo not shown) [Primaquine, N^8-(4-amino-1-methylbutyl)-6-methoxy-8-quinolinamine, reference compound]
P. falciparum (IC50) (P. falciparum; parasitized erythrocytes, 24-48 h incubation): Not active
(%) Methemoglobin (MetHb) Increase (Mastomys coucha; 15 mg/kg/day x 4 days (ip)): 3.38%
(%) Methemoglobin (MetHb) Increase (Mastomys coucha; 15 mg/kg/day x 4 days (oral)): 3.57%
(%) Methemoglobin (MetHb) Increase (Mastomys coucha; 50 mg/kg (single dose) (ip)): 3.38%
(%) Methemoglobin (MetHb) Increase (Mastomys coucha; 50 mg/kg (single dose) (oral)): 2.58%
time to peak plasma concentration ([3]; absorbed from the gastro-intestinal tract, known property): ≤ 3 h
half-life ([3]; known property of the drug): 4 to 6 h
apparent elimination half time ([3]; known property): 6 h

CCCCCCCCOc1c(OC)cc(NC(C)CCCN)c2nc(C(C)(C)C)cc(CC)c12 (stereo not shown) [Example 55, N^8-(4-Amino-1-methylbutyl)-2-tert-butyl-4-ethyl-6-methoxy-5-octoxy-8-quinolin-amine]
Biological activity at (mg/kg/days × 4) [1]: Curative at 100 mg/kg
